Experimental findings from patent USRE39496E1, “Kahalalide F and compositions and uses thereof” (PharmaMar, S.A., priority 1993, dated 2007) are described below.

Some results are limits rather than exact numbers.

For one experiment, the system named is HSV-1. The note with it: CV-1 cells / HSV-1.
The next experiment concerns Candida albicans. The note with it: 50 μg/disk.
Experiment [1] deals with human lung carcinoma A-549. Nature of the experiment: In vitro cytotoxicity, A-549 cell culture. It counts as cell-based. The note with it: A-549 cells. On the procedure: (§1) The antitumor activities of this compound has been determined “in vitro” in cell cultures of human lung carcinoma A-549 and human colon carcinoma HT-29. The procedure was carried out using the metnhodology methodology described by Raymond J. Bergeron et al. Biochem. Bioph. Res. Comm. 1984, 121(3), 848-854 and by Alan C. Schroeder et al. J. Med. Chem. 1981, 24 1078-1083.

A further experiment relates to Aspergillus oryzae. The note with it: 50 μg/disk.
A further experiment has as its system HSV II. The note with it: Mv 2 Lu cells / HSV II; concentration giving the printed % reduction.
Experiment [2] concerns human colon carcinoma HT-29. As to the kind of experiment: In vitro cytotoxicity, HT-29 cell culture. Type of experiment: cell-based. The note with it: HT-29 cells. On the procedure: as §1
The next experiment deals with Tricophyton mentagrophy. The note with it: 50 μg/disk.
Another experiment relates to Saccharomyces cerevisiac. The note with it: 50 μg/disk.
In a further experiment the test system is Penicillium notatum. The note with it: 50 μg/disk.

On to `C/C=C1\NC(=O)[C@H](Cc2ccccc2)NC(=O)[C@@H](C(C)C)NC(=O)[C@@H]([C@@H](C)CC)NC(=O)[C@H](NC(=O)[C@H](NC(=O)[C@H](CCCN)NC(=O)[C@H]2CCCN2C(=O)[C@H](NC(=O)[C@@H](NC(=O)[C@@H](NC(=O)[C@H](NC(=O)CCCC(C)C)C(C)C)[C@@H](C)O)C(C)C)C(C)C)[C@@H](C)CC)[C@@H](C)OC(=O)[C@H](C(C)C)NC1=O` [Kahalalide F], for which the “Antiviral” value was over 8 µg/mL in the experiment with HSV-1, over 8 µg/mL in the experiment with VSV and 0.5 µg/mL in the experiment on HSV II. The “Antifungal 6 mm disk” value is 16 mm in the experiment with Candida albicans; 19 mm with Aspergillus oryzae; 34 mm in the experiment with Tricophyton mentagrophy; “neg” in the experiment with Saccharomyces cerevisiac; 26 mm in the experiment with Penicillium notatum. The “Cytoxicity (IC50)” value in [1] was 2.5 µg/mL; in experiment [2], 0.25 to 0.5 µg/mL.
